Results published in ChEMBL document CHEMBL5338798, “An Analysis of Successful Hit-to-Clinical Candidate Pairs” (J Med Chem, 2023).

Biological target: T1, Tyrosine-protein phosphatase non-receptor type 11 (Homo sapiens, UniProt Q06124)
T1 sequence (Q06124 whole entry): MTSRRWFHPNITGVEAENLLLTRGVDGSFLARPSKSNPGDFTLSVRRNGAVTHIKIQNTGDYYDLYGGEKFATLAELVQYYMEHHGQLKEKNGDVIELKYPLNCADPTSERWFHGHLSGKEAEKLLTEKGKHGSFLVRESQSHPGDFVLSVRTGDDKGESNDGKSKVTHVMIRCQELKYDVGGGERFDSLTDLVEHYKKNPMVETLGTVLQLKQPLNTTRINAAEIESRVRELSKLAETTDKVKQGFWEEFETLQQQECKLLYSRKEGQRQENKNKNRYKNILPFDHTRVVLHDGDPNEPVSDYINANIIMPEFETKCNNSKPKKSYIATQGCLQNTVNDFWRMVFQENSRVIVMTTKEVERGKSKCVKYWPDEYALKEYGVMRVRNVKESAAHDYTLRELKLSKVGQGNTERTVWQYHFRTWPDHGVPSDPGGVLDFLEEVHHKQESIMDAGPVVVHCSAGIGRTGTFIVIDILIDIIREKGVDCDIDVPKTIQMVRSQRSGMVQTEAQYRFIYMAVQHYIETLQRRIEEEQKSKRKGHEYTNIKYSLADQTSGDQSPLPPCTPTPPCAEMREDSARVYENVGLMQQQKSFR
Experiment: Inhibition of SHP2 (unknown origin)

CC1(N)CCN(c2cnc(Sc3cccc(Cl)c3Cl)c(N)n2)CC1
IC50: 30 nM
